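96-well plates; 48 h exposure; 5 concentrations. Endpoints by linear interpolation between flanking doses. Not reached: highest tested concentration assigned. TGI denotes the concentration required for complete inhibition of growth.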
Assays:
Test in all cases: NCI tumour cell line growth inhibition, 48 h
[1] = test system: 786-0 renal
[2] = test system: SR leukemia
[3] = test system: SK-MEL-5 melanoma
[4] = test system: UO-31 renal
[5] = test system: SK-MEL-28 melanoma
[6] = test system: HOP-92 NSCLC
[7] = test system: OVCAR-5 ovarian
[8] = test system: DU-145 prostate
[9] = test system: NCI-H23 lung
[10] = test system: UACC-62 melanoma
[11] = test system: SF-539 CNS
[12] = test system: PC-3 prostate
[13] = test system: NCI-H226 lung
[14] = test system: A549 NSCLC
[15] = test system: MCF7 breast
[16] = test system: RXF 393 renal
[17] = test system: T-47D breast
[18] = test system: IGROV1 ovarian
[19] = test system: MDA-N
[20] = test system: CCRF-CEM leukemia
[21] = test system: OVCAR-4 ovarian
[22] = test system: HT29 colon
[23] = test system: KM12 colon
[24] = test system: SNB-75 CNS
[25] = test system: NCI/ADR-RES ovarian
[26] = test system: OVCAR-8 ovarian
[27] = test system: NCI-H460 lung
[28] = test system: COLO 205 colon
[29] = test system: SN12C renal
[30] = test system: SF-295 CNS
[31] = test system: MALME-3M melanoma
[32] = test system: TK-10 renal
[33] = test system: HCC-2998 colon
[34] = test system: HL-60(TB) leukemia
[35] = test system: M14 melanoma
[36] = test system: MOLT-4 leukemia
[37] = test system: HCT-15 colon
[38] = test system: SK-MEL-2 melanoma
[39] = test system: ACHN renal
[40] = test system: MDA-MB-435
[41] = test system: A498 renal
[42] = test system: RPMI-8226 leukemia
[43] = test system: HCT-116 colon
[44] = test system: NCI-H522 lung
[45] = test system: U251 CNS
[46] = test system: UACC-257 melanoma
[47] = test system: MDA-MB-231 breast
[48] = test system: SNB-19 CNS
[49] = test system: SW-620 colon
[50] = test system: SF-268 CNS
[51] = test system: BT-549 breast
[52] = test system: K-562 leukemia
[53] = test system: EKVX NSCLC
[54] = test system: HS 578T breast
[55] = test system: LOX IMVI melanoma
[56] = test system: CAKI-1 renal
[57] = test system: HOP-62 NSCLC
[58] = test system: OVCAR-3 ovarian
[59] = test system: SK-OV-3 ovarian

Compound: O=C(CCNC12CC3CC(CC(C3)C1)C2)c1ccccc1
- TGI [1]: 31.6 µM
- TGI [2]: 37.1 µM
- TGI [3]: 32.7 µM
- TGI [4]: 77.6 µM
- TGI [5]: 75.4 µM
- TGI [6]: 64.2 µM
- TGI [7]: 71.7 µM
- TGI [8]: > 100 µM
- TGI [9]: 48.8 µM
- TGI [10]: 39.6 µM
- TGI [11]: 40.3 µM
- TGI [12]: 50.5 µM
- TGI [13]: > 100 µM
- TGI [14]: > 100 µM
- TGI [15]: 34.9 µM
- TGI [16]: 53.5 µM
- TGI [17]: 55.4 µM
- TGI [18]: 55.4 µM
- TGI [19]: 30.5 µM
- TGI [20]: 39.2 µM
- TGI [21]: > 100 µM
- TGI [22]: 23.6 µM
- TGI [23]: 91.1 µM
- TGI [24]: 65.3 µM
- TGI [25]: 59.8 µM
- TGI [26]: 45 µM
- TGI [27]: 69.6 µM
- TGI [28]: 34.9 µM
- TGI [29]: 36.3 µM
- TGI [30]: 50.2 µM
- TGI [31]: 32.1 µM
- TGI [32]: 39.6 µM
- TGI [33]: 26.5 µM
- TGI [34]: 28.1 µM
- TGI [35]: 37.1 µM
- TGI [36]: 35.3 µM
- TGI [37]: 40.2 µM
- TGI [38]: 30 µM
- TGI [39]: 88.7 µM
- TGI [40]: 65.9 µM
- TGI [41]: 62.9 µM
- TGI [42]: 26.4 µM
- TGI [43]: 29.4 µM
- TGI [44]: 32 µM
- TGI [45]: 31.9 µM
- TGI [46]: 49.4 µM
- TGI [47]: 69.8 µM
- TGI [48]: > 100 µM
- TGI [49]: 35.6 µM
- TGI [50]: > 100 µM
- TGI [51]: 85.3 µM
- TGI [52]: 36.5 µM

Compound: CCOC(=O)c1cn2c(n1)sc1cccc(C)c12
- TGI [1]: > 100 µM
- TGI [3]: > 100 µM
- TGI [4]: > 100 µM
- TGI [7]: > 100 µM
- TGI [8]: > 100 µM
- TGI [9]: > 100 µM
- TGI [10]: > 100 µM
- TGI [11]: > 100 µM
- TGI [12]: > 100 µM
- TGI [13]: > 100 µM
- TGI [53]: > 100 µM
- TGI [14]: > 100 µM
- TGI [15]: > 100 µM
- TGI [16]: > 100 µM
- TGI [18]: > 100 µM
- TGI [19]: > 100 µM
- TGI [23]: > 100 µM
- TGI [24]: > 100 µM
- TGI [25]: > 100 µM
- TGI [26]: > 100 µM
- TGI [27]: > 100 µM
- TGI [54]: > 100 µM
- TGI [55]: > 100 µM
- TGI [28]: > 100 µM
- TGI [30]: > 100 µM
- TGI [31]: > 100 µM
- TGI [32]: > 100 µM
- TGI [33]: > 100 µM
- TGI [56]: > 100 µM
- TGI [57]: > 100 µM
- TGI [35]: > 100 µM
- TGI [37]: > 100 µM
- TGI [39]: > 100 µM
- TGI [43]: > 100 µM
- TGI [44]: > 100 µM
- TGI [46]: > 100 µM
- TGI [47]: > 100 µM
- TGI [48]: > 100 µM
- TGI [58]: > 100 µM
- TGI [50]: > 100 µM
- TGI [51]: > 100 µM
- TGI [59]: > 100 µM
